The source made the active and inactive calls.
What was measured:
[1] = CRF-BP/CRF-R2 complex antagonists, dose response, cell-based, uHTS hits, 384-well (AID 651639); assay type: functional, Homo sapiens; conditions: read-out: IC50_Mean
HEK293 [2] = assay: NOD1 signaling inhibitors, primary screen, cell-based, luminescence, uHTS (AID 1578); assay type: functional; conditions: Homo sapiens
[3] = target: T1, Corticotropin-releasing factor receptor 2/Corticotropin-releasing factor-binding protein (Homo sapiens, UniProt P24387+Q13324); assay: Dose Response confirmation of uHTS hits for small molecule antagonists of the CRF-binding protein and CRF-R2 receptor complex.; assay type: functional; conditions: read-out: IC50_Mean
T1 sequence (Q13324 whole entry): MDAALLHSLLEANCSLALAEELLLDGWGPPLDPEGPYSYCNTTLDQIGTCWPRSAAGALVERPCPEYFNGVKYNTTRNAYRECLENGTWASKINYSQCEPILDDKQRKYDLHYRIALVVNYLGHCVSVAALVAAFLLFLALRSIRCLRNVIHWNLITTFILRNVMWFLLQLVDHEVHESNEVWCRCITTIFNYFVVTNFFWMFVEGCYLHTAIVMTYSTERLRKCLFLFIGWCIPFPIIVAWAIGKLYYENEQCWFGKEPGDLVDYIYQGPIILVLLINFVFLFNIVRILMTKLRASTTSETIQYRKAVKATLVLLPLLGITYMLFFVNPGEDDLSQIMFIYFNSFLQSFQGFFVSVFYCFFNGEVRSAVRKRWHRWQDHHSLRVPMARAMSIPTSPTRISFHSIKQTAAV
T1 sequence (P24387 whole entry): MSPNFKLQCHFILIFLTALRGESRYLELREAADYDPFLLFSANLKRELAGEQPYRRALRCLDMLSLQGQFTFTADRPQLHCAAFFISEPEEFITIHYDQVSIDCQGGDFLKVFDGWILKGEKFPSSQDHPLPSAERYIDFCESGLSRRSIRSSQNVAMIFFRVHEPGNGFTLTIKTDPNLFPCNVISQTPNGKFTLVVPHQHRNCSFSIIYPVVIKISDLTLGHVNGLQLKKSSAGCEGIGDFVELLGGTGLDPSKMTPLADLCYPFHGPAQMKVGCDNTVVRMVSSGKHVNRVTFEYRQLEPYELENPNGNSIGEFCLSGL

HEK293 [4] = assay: cells; assay type: functional, cell-based; conditions: Homo sapiens
Mucolipin-3 = target: T2, Mucolipin-3 (Homo sapiens, UniProt Q8TDD5); assay: Fluorescence counterscreen assay for […] agonists: dose response cell-based high-throughput screening assay to identify agonists of the transient receptor potential channel ML3 (TRPML3). [Related pubchem assays: 1424, 1448 ]; assay type: functional
T2 sequence (Q8TDD5 whole entry): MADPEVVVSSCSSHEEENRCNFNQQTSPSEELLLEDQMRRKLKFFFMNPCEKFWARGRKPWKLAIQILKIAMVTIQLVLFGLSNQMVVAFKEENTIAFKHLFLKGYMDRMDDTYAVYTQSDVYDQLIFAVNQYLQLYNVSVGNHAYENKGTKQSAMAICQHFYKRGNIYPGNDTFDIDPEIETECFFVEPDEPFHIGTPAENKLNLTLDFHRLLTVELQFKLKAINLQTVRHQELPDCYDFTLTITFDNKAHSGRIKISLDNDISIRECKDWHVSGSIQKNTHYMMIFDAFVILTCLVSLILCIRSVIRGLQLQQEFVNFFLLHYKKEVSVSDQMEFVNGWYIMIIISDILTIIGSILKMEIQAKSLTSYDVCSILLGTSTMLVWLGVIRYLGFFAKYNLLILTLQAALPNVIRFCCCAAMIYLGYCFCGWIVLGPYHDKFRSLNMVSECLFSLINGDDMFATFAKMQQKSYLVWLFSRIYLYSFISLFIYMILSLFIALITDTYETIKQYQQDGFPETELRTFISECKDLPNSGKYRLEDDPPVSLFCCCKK

Ion channel NompC = Ion channel NompC (Danio rerio, UniProt Q7T1G6); assay: Dose response cell-based high-throughput screening assay for agonists of the transient receptor potential channel N1 (TRPN1). [Related pubchem assays (depositor defined):AID1424, AID1448]; assay type: functional
[5] = target: T1, Corticotropin-releasing factor receptor 2/Corticotropin-releasing factor-binding protein; assay: activators of CRF receptor 2 with binding protein – uHTS hits, confirmation (AID 602473); assay type: functional; conditions: read-out: EC50_Mean
HEK293 [6] = assay: NOD2 signaling inhibitors in MDP-stimulated cells, cell-based, uHTS, luminescence (AID 2001); assay type: functional; conditions: Homo sapiens
HEK293 [7] = assay: cells; assay type: functional, cell-based; conditions: Homo sapiens; remark: listed apart in the source
[8] = target: Nucleotide-binding oligomerization domain-containing protein 2 (Homo sapiens, UniProt Q9HC29); assay: NOD2 signaling inhibitors, cell-based, luminescence, uHTS, HEK293 (AID 1566); assay type: functional
HEK293 [9] = assay: cells; assay type: functional, cell-based; conditions: Homo sapiens; remark: listed apart in the source

Chain of Ion channel NompC (Q7T1G6 whole entry): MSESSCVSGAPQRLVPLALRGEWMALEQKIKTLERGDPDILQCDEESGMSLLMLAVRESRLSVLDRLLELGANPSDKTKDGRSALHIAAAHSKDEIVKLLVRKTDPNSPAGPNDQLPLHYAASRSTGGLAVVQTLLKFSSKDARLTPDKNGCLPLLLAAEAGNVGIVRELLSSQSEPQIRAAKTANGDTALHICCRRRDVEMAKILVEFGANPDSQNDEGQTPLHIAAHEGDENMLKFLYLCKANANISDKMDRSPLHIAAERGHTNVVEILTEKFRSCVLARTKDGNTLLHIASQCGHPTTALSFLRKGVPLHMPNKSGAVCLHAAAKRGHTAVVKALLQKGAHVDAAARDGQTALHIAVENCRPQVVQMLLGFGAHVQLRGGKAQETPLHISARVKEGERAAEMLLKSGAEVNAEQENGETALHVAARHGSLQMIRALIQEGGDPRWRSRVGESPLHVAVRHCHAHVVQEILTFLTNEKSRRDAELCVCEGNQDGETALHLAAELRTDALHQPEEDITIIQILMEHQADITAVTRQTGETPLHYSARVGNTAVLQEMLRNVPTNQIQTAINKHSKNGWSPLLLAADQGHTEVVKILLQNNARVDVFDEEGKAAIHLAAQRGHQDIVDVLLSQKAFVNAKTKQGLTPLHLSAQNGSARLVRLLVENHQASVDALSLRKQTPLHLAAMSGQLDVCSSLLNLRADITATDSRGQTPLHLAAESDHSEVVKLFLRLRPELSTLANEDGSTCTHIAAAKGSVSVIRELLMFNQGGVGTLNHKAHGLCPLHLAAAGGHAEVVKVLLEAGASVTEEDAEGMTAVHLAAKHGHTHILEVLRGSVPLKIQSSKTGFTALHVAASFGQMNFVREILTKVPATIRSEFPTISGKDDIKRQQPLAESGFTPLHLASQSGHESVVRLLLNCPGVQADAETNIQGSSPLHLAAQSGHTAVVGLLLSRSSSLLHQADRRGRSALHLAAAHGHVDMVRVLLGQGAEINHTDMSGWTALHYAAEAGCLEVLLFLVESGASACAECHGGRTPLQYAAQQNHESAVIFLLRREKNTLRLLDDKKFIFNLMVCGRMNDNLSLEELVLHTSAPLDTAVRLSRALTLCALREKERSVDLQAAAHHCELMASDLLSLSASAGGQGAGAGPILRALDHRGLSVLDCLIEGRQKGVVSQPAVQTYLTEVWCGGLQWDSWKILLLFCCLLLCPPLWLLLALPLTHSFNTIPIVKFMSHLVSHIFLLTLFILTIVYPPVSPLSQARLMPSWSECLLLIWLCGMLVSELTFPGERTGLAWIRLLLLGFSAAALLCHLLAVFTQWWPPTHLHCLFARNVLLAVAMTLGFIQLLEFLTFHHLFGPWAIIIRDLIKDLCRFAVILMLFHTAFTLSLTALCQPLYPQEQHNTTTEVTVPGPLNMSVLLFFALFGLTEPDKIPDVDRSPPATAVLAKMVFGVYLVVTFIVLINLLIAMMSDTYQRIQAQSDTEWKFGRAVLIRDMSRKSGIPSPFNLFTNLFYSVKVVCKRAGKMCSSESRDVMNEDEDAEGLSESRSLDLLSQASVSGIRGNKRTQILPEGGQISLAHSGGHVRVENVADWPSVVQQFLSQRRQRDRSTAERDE
Chain of Nucleotide-binding oligomerization domain-containing protein 2 (Q9HC29 whole entry, the tested form may be a part): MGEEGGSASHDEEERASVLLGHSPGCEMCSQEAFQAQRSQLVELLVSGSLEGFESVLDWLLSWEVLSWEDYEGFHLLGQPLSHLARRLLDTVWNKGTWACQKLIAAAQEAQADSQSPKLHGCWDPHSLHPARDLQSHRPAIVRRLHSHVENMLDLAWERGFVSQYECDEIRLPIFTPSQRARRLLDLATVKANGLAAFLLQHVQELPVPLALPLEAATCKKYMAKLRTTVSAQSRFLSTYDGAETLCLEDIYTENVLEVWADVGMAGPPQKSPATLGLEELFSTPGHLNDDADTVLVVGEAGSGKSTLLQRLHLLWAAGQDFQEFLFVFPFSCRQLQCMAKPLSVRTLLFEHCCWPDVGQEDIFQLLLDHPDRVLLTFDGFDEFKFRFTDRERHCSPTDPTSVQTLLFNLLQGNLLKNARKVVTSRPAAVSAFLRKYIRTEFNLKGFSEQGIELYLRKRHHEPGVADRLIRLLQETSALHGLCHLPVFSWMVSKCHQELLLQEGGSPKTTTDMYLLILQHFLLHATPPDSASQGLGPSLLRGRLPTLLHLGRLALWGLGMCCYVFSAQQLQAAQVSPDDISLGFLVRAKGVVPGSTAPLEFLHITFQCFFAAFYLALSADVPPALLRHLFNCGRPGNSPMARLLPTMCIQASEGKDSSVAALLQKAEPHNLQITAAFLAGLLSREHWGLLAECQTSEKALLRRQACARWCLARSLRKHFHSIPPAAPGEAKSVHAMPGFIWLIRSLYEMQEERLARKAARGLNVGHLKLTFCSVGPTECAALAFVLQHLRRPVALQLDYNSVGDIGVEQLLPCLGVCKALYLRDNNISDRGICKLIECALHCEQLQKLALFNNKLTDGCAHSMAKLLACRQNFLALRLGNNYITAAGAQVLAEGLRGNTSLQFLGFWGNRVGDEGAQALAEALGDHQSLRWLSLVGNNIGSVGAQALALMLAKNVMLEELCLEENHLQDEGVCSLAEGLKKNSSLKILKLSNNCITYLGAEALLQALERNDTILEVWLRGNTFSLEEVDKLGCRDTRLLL

COC(=O)c1ccc(NC(=O)c2ccccc2NS(=O)(=O)c2ccccc2)cc1
active: EC50 (HEK293 [2]) 2.34 µM | IC50 [3] 0.506 µM | IC50 (HEK293 [4]) 12.9 µM | IC50 (HEK293 [6]) 7.55 µM | EC50 [8] 6.09 µM
> 29.9 µM (not active): EC50 (Mucolipin-3)
inactive: IC50 [1] > 20 µM | EC50 (Ion channel NompC) > 29.9 µM | EC50 [5] > 53 µM | IC50 (HEK293 [7]) > 20 µM | IC50 (HEK293 [9]) > 20 µM

Reference: ChEMBL document CHEMBL1201862, “PubChem BioAssay data set” (2004)
